The text below walks through data of article PMC8376047, “Complexation of uranyl (UO2)^2+ with bidentate ligands: XRD, spectroscopic, computational, and biological studies” (PLoS ONE, 2021).

Experiment in all cases: UV-Vis absorption titration (Kb) and tryptophan fluorescence quenching (KSV […])
Type in all cases: binding

Assay [1] addresses T1, human serum albumin (HSA) (Homo sapiens, UniProt P02768).
T1 construct: gene ALB

Assay [2] concerns the target T1, human serum albumin (HSA). This is another data set of the same source.
Assay [3] concerns the target T1, human serum albumin (HSA). The source holds these as a separate data set.

T1 sequence (P02768 25-609): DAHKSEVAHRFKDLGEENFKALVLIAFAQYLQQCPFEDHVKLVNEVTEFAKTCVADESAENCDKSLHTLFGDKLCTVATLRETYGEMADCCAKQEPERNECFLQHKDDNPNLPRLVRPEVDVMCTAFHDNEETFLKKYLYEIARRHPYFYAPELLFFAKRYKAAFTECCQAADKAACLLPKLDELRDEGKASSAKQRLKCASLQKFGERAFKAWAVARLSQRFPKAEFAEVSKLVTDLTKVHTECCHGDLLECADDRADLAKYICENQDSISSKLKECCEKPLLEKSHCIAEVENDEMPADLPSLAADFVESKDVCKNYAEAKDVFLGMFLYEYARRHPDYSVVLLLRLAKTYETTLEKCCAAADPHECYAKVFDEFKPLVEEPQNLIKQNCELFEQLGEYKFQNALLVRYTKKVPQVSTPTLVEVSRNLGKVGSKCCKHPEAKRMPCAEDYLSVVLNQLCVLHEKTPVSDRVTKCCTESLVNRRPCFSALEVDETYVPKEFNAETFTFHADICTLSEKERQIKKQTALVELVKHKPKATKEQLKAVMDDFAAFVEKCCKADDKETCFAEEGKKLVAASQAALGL

Consider [(UO2)(OAc)2(SCZ)], for which the “UV-Vis absorption titration (Kb) and tryptophan fluorescence quenching (KSV 9.46)” value in assay [1] is on record as 7×10^4.

For [(UO2)(OAc)2(CMZ)], the “UV-Vis absorption titration (Kb) and tryptophan fluorescence quenching (KSV 7.2×)” value in assay [2] was 2.10×10^5.

[(UO2)(OAc)2(MP)]: the “UV-Vis absorption titration (Kb) and tryptophan fluorescence quenching (KSV 9.75)” value in assay [3] is given as 2.26×10^5.
